Experimental data taken from patent publication US9181290B2, “Inhibition of biofilm formation by 1,2,3,4,6-penta-O-galloyl-D-glucopyranose” (CHANG GUNG UNIVERSITY, priority 2011, dated 2015).

Key:
HEp-2 cells = assay: Cell viability assay (MTT); format: cell-based, human; settings: concentrations below 50 μM, 24 hr treatment, 10% fetal calf serum
Method: (§1) Human HepG2 cells (ATCC HB-8065) and 293T cells (ATCC CRL-11268) were cultured in Dulbecco's modified Eagle's medium (DMEM) supplemented with 10% (v/v) fetal calf serum. Human MRC-5 cells (ATCC CCL171) and HEp-2 cells (ATCC CCL-23) were cultured in Eagle's minimum essential medium (MEM) supplemented with 10% fetal calf serum. These four human cell lines were seeded into 24-well polystyrene tissue culture plates at a cell density of 1×10^5 cells/500 μL medium per well, respectively. After incubation at 37° C. for 24 hrs, β-PGG was added into each well in various amounts (0, 6.25, 12.5, 25 and 50 μM). After 24 hr treatment of β-PGG, toxicity of β-PGG to these human cell lines was determined using the 3-(4,5-dimethylthiazol-2-yl)-2,5-diphenyltetrazolium bromide (MTT) method (Xiangshu Piao et al. (2008), supra). Additionally, toxicity of β-PGG to the 293T cells was also determined in medium containing 0% and 2% fetal calf serum. Cells treated with DMSO were used as a negative control.

MRC-5 cells = assay: Cell viability assay (MTT); format: cell-based, human; settings: concentrations below 50 μM, 24 hr treatment, 10% fetal calf serum
Method: as §1

HepG2 cells = assay: Cell viability assay (MTT); format: cell-based, human; settings: concentrations below 50 μM, 24 hr treatment, 10% fetal calf serum
Method: as §1

293T cells = assay: Cell viability assay (MTT); format: cell-based, human
Method: as §1

[1] = tested on: S. aureus clinical strain SA41 (MSSA); assay: Growth (A578) and biofilm (A595) in polystyrene plates; format: cell-based, Staphylococcus aureus; settings: 12.5 μM β-PGG, 6 hr
Method: (§2) An overnight bacterial culture was 200-fold diluted with TSBg, and a 200 μL aliquot of the diluted culture was seeded into each well of 96-well polystyrene microtiter plates and incubated at 37° C. for a designated period of time. Cell growth was determined by measuring the absorbance at 578 nm (A578) with a microtiter plate reader (SpectraMax 340, Molecular Devices). After washing with PBS twice to remove suspended cells, the wells were stained with 0.1% (w/v) crystal violet in 10% ethanol and then treated with 30% acetic acid in dH2O, followed by detecting the absorbance at 595 nm (A595) with the microtiter plate reader to quantify the amount of biofilm formed on polystyrene surface.

[2] = tested on: S. aureus clinical strain SA13 (MSSA); assay: as above; format: cell-based, Staphylococcus aureus; settings: 12.5 μM β-PGG, 6 hr
Method: as §2

[3] = tested on: S. aureus clinical strain SA285 (MSSA); assay: as above; format: cell-based, Staphylococcus aureus; settings: 12.5 μM β-PGG, 6 hr
Method: as §2

[4] = tested on: S. aureus clinical strain SA33 (MSSA); assay: as above; format: cell-based, Staphylococcus aureus; settings: 12.5 μM β-PGG, 6 hr
Method: as §2

[5] = tested on: S. aureus clinical strain SA486 (MRSA); assay: as above; format: cell-based, Staphylococcus aureus; settings: 12.5 μM β-PGG, 6 hr
Method: as §2

[6] = tested on: S. aureus clinical strain SA288 (MSSA); assay: as above; format: cell-based, Staphylococcus aureus; settings: 12.5 μM β-PGG, 6 hr
Method: as §2

[7] = tested on: S. aureus clinical strain SA435 (MRSA); assay: as above; format: cell-based, Staphylococcus aureus; settings: 12.5 μM β-PGG, 6 hr
Method: as §2

[8] = tested on: S. aureus clinical strain SA289 (MSSA); assay: as above; format: cell-based, Staphylococcus aureus; settings: 12.5 μM β-PGG, 6 hr
Method: as §2

[9] = tested on: S. aureus clinical strain SA44 (MRSA); assay: as above; format: cell-based, Staphylococcus aureus; settings: 12.5 μM β-PGG, 6 hr
Method: as §2

[10] = tested on: S. aureus clinical strain SA130 (MRSA); assay: as above; format: cell-based, Staphylococcus aureus; settings: 12.5 μM β-PGG, 6 hr
Method: as §2

[11] = tested on: S. aureus clinical strain SA703 (MRSA); assay: as above; format: cell-based, Staphylococcus aureus; settings: 12.5 μM β-PGG, 6 hr
Method: as §2

[12] = tested on: S. aureus clinical strain SAChu (MRSA); assay: as above; format: cell-based, Staphylococcus aureus; settings: 12.5 μM β-PGG, 6 hr
Method: as §2

O=C(OC[C@H]1O[C@@H](OC(=O)c2cc(O)c(O)c(O)c2)[C@H](OC(=O)c2cc(O)c(O)c(O)c2)[C@@H](OC(=O)c2cc(O)c(O)c(O)c2)[C@@H]1OC(=O)c1cc(O)c(O)c(O)c1)c1cc(O)c(O)c(O)c1 [β-PGG, 1,2,3,4,6-penta-O-galloyl-β-D-glucopyranose]
cell viability (MTT) (HEp-2 cells): did not affect the viability
cell viability (MTT) (MRC-5 cells): did not affect the viability
cell viability (MTT) (HepG2 cells): did not affect the viability
cell viability (MTT) (293T cells; concentrations below 50 μM, 24 hr treatment, 10% fetal calf serum): did not affect the viability
influence of serum concentration on toxicity (293T cells; medium with 2% or 0% fetal calf serum): no influence upon the toxicity
Growth (A578) ([1]; 0 μM: 0.65 ± 0.02): 0.61 ± 0.05
Biofilm (A595) ([1]; 0 μM: 1.67 ± 0.27): 0.36 ± 0.05
Growth (A578) ([2]; 0 μM: 0.69 ± 0.09): 0.67 ± 0.06
Biofilm (A595) ([2]; 0 μM: 0.98 ± 0.13): 0.12 ± 0.04
Growth (A578) ([3]; 0 μM: 0.56 ± 0.09): 0.46 ± 0.03
Biofilm (A595) ([3]; 0 μM: 0.86 ± 0.09): 0.16 ± 0.02
Growth (A578) ([4]; 0 μM: 0.79 ± 0.01): 0.79 ± 0.04
Biofilm (A595) ([4]; 0 μM: 0.80 ± 0.07): 0.13 ± 0.03
Growth (A578) ([5]; 0 μM: 0.76 ± 0.08): 0.65 ± 0.02
Biofilm (A595) ([5]; 0 μM: 1.94 ± 0.19): 0.26 ± 0.07
Growth (A578) ([6]; 0 μM: 0.55 ± 0.01): 0.50 ± 0.01
Biofilm (A595) ([6]; 0 μM: 0.83 ± 0.02): 0.10 ± 0.01
Growth (A578) ([7]; 0 μM: 0.64 ± 0.10): 0.67 ± 0.09
Biofilm (A595) ([7]; 0 μM: 0.97 ± 0.09): 0.46 ± 0.06
Growth (A578) ([8]; 0 μM: 0.77 ± 0.02): 0.72 ± 0.07
Biofilm (A595) ([8]; 0 μM: 1.16 ± 0.01): 0.35 ± 0.01
Growth (A578) ([9]; 0 μM: 0.66 ± 0.08): 0.64 ± 0.04
Biofilm (A595) ([9]; 0 μM: 1.33 ± 0.01): 0.46 ± 0.01
Growth (A578) ([10]; 0 μM: 0.61 ± 0.12): 0.62 ± 0.17
Biofilm (A595) ([10]; 0 μM: 3.05 ± 0.10): 0.32 ± 0.04
Growth (A578) ([11]; 0 μM: 0.74 ± 0.10): 0.70 ± 0.07
Biofilm (A595) ([11]; 0 μM: 2.33 ± 0.02): 0.88 ± 0.07
Growth (A578) ([12]; 0 μM: 0.56 ± 0.02): 0.52 ± 0.04
Biofilm (A595) ([12]; 0 μM: 8.06 ± 0.10): 0.77 ± 0.11
